Test results published in patent publication US6924302B2, “Substituted triazole diamine derivatives as kinase inhibitors” (Ortho McNeil Pharmaceutical, Inc., priority 2000, dated 2005).

Key:
[1] = molecular target: T1, HER2 (human epidermal growth factor receptor-2) (Homo sapiens, UniProt P04626); assay: Kinase Selectivity Assay HER2; assay type: biochemical; conditions: Kinase Selectivity, Tables 2a-2k; read-out: HER2 Kinase IC50
T1 construct: begins at amino acid 676 followed by the remainder of the HER2 cytoplasmic domain; polyhistidine (N)
In short: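 Reactions ran one hour at 30° C in 1% DMSO with enzyme diluted in 50 mM Tris-HCl pH 8.0, 0.1% BSA. Scintillation counting read ^33P incorporated into immobilized biotinylated peptide.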

[2] = molecular target: T2, VEGF-R (vascular endothelial growth factor receptor-2) (Rattus norvegicus, UniProt O08775); assay: VEGF-R Screening Assay; assay type: biochemical; conditions: Kinase Selectivity, Tables 2a-2k; read-out: VEGF-R IC50
T2 construct: polyhistidine (6xHIS) (N)

[3] = molecular target: T3, Glycogen Synthase Kinase-3 (beta isoform) (Oryctolagus cuniculus, UniProt G1T8E2); assay: Kinase Selectivity Assay Glycogen Synthase Kinase-3; assay type: biochemical, rabbit; conditions: Kinase Selectivity, Tables 2a-2k; read-out: GSK-3 IC50
T3 construct: purchased New England Biolabs 6040; host or cells: E. coli
Method: (§1) Assays to test compound inhibition of other kinases were preformed using methods that measure the amount of phosphorylation of a biotinylated peptide substrate. Biotinylated peptide substrates were selected from the literature as appropriate for the enzyme being evaluated. […] Assay conditions vary slightly for each protein kinase, for example, insulin receptor kinase requires 10 mM MnCl2 for activity and Calmodulin-dependent protein kinase requires calmodulin and 10 mM CaCl2. These assay conditions are known in the art. The reaction mixture was dispensed into the wells of a streptavidin coated Flashplate and 1 μl drug stock in 100% DMSO was added to a 100 μl reaction volume resulting in a final concentration of 1% DMSO on the reaction. Enzyme was diluted in 50 mM Tris-HCl pH=8.0, 0.1% BSA and add to each well. The reaction was incubated for one hour at 30° C. in the presence of compound. After one hour the reaction mix was aspirated from the plate and the plate was washed with PBS containing 100 mM EDTA. The plate was read on a scintillation counter to determine ^33P-γ-ATP incorporated into the immobilized peptide. Test compounds were assayed in duplicate at 8 concentrations [100 uM, 10 uM, 1 uM, 100 nM, 10 nM, 1 nM, 100 pM, 10 pM]. A maximum and minimum signal for the assay was determined on each plate. The IC50 was calculated from the dose response curve of the percent inhibition of the maximum signal in the assay according to the formula [max signal—background/test compound signal—background (100)=% inhibition] by graphing the percent inhibition against the log concentration of test compound. Known inhibitor compounds appropriate for the kinase being assayed were also included on each plate.
(§2) CDK2 in complex with cyclin A is commercially available (Upstate Biotech, Lake Placid, N.Y.). The CDK4 complex was composed of a mouse CDK4 protein and a mouse Cyclin D1 protein (The mouse CDK4 protein was genetically fused to an N-terminal Flag-epitope tag and the mouse Cyclin D1 protein was fused with an N-terminal AU-1 epitope tag. The genes encoding these proteins were transferred to commercially available baculoviral vectors. The recombinant CDK4/D1 complex was then made by co-infecting commercially available insect cells with viruses carrying these two constructs). […] ERK-1 protein (Discontinued from Calbiochem). EGFR (epidermal growth factor receptor) is purified from human A431 cell membranes (Sigma, St. Louis, Mo., Cat.# E3641).

[4] = molecular target: T4, CDK2 in complex with cyclin A (Homo sapiens, UniProt P24941); assay: Kinase Selectivity Assay CDK2; assay type: biochemical; conditions: Kinase Selectivity, Tables 2a-2k
T4 construct: purchased Upstate Biotech
Method: as §1, §2

CDK1:Cyclin-B = molecular target: T5, CDK1:Cyclin-B (Homo sapiens, UniProt P06493); assay: CDK1 Screening Assay; assay type: biochemical; conditions: Kinase Selectivity, Tables 2a-2k; read-out: CDK1 IC50
T5 construct: purchased New England Biolabs 6020; host or cells: insect cells
In short: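 Human CDK1:cyclin-B (30 ng/well) with biotinylated histone-H1 peptide and ^33P-γ-ATP, 1 h at 30° C, 1% DMSO, on streptavidin FlashPlate; incorporation read by scintillation.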

T1 sequence (P04626 676-1255 limits assumed): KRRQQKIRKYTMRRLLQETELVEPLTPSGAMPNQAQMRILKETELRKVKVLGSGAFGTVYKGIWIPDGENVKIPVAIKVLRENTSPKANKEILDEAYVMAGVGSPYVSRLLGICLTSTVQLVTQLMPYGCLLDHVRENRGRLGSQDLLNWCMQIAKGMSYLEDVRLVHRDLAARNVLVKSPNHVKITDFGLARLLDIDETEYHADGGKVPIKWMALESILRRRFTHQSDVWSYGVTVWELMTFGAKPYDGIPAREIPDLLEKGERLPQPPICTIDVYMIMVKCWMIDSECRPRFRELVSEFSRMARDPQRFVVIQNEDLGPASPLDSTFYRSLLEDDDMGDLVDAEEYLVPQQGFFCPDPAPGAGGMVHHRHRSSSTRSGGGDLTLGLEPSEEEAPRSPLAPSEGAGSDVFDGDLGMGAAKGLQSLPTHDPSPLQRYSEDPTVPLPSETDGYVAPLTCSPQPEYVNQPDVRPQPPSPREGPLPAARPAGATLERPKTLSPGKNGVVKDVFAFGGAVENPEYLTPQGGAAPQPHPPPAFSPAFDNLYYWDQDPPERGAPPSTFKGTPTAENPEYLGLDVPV
T2 sequence (O08775 786-1343): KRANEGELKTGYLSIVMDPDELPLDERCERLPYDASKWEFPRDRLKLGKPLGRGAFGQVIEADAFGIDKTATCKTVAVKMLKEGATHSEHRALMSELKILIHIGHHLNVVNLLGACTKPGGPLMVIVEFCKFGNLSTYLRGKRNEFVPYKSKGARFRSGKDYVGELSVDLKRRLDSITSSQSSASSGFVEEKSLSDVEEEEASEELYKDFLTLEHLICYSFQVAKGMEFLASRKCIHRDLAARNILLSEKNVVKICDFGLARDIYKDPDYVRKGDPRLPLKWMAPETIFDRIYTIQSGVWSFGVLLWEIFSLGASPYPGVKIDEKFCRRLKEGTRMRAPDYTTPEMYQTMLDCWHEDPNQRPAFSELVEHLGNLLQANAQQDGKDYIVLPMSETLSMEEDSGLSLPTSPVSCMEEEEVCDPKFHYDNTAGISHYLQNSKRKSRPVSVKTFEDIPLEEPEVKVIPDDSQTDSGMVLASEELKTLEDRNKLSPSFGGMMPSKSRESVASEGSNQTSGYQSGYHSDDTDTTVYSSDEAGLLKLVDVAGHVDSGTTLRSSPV
T5 sequence (P06493 whole entry): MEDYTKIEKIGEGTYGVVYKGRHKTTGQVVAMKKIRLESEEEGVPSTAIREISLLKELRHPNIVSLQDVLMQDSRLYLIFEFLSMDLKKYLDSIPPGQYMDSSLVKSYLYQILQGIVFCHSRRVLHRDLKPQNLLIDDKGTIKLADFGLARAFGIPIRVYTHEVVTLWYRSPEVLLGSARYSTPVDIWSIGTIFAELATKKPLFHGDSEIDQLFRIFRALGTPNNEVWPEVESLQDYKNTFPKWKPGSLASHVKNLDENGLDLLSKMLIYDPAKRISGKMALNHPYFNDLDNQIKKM
T5 sequence (P14635 whole entry partner): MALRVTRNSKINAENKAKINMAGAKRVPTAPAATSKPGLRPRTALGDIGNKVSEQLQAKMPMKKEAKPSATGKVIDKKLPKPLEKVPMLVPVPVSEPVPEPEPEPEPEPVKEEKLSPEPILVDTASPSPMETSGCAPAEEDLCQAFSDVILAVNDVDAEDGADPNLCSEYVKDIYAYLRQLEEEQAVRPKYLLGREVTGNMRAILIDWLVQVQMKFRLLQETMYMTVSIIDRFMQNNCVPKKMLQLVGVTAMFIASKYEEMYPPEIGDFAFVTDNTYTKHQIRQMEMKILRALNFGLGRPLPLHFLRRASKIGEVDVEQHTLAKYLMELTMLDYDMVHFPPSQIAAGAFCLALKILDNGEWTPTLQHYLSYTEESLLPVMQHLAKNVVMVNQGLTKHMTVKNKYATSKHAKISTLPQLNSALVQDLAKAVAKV
T3 sequence (G1T8E2 1-432): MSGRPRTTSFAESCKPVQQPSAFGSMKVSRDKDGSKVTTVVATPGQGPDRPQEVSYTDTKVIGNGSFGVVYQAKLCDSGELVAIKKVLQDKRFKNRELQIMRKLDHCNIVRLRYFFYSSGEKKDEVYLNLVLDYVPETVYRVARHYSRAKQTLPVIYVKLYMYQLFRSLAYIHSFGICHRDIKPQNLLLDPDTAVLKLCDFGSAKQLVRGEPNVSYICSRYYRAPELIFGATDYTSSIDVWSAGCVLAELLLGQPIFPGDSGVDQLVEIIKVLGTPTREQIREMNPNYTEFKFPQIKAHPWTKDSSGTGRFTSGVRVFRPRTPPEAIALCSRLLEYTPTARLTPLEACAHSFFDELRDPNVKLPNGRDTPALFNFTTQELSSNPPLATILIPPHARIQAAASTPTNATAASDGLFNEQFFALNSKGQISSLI

SMILES | IC50 [1] [nM] | IC50 [2] [nM] | IC50 [3] [nM] | IC50 [4] [nM] | IC50 (CDK1:Cyclin-B) [nM]
Nc1nc(Nc2ccccc2)nn1C(=O)c1c(F)cccc1F [Cpd 61, 1-(2,6-Difluorobenzoyl)-N^3-phenyl-1H-1,2,4-triazole-3,5-diamine] | 820 | 72 | 55 | 49 | 180
Nc1nc(Nc2ccccc2)nn1C(=O)c1ccccc1 [Cpd 62, 1-benzoyl-N^3-phenyl-1H-1,2,4-triazole-3,5-diamine] | 410 | 64 | 73 | 290 | 530
Nc1nc(Nc2cccc(Cl)c2)nn1C(=O)c1c(F)cccc1F [Cpd 63, N^3-(3-chlorophenyl)-1-(2,6-difluorobenzoyl)-1H-1,2,4-triazole-3,5-diamine] | 150 | 320 | 73 | 56 | 79
Nc1nc(Nc2cccc(Cl)c2)nn1C(=O)c1ccccc1 [Cpd 64, 1-benzoyl-N^3-(3-chlorophenyl)-1H-1,2,4-triazole-3,5-diamine] | 76 | 51 | 21 | 200 | 210
Nc1nc(Nc2ccccc2)nn1C(=O)Nc1ccccc1 [Cpd 65, 5-amino-N-phenyl-3-(phenylamino)-1H-1,2,4-triazole-1-carboxamide] | 790 | 180 | 100 | 410 | 670
Nc1nc(Nc2ccccc2)n(C(=O)c2c(F)cccc2F)n1 [Cpd 124, 1-(2,6-difluorobenzoyl)-N^5-phenyl-1H-1,2,4-triazole-3,5-diamine] | 820 | 4800 | 3000 | 1700 | 2200
Nc1nc(Nc2ccccc2)n(C(=O)c2ccccc2)n1 [Cpd 125, 1-benzoyl-N^5-phenyl-1H-1,2,4-triazole-3,5-diamine] | > 100000 | > 100000 | > 100000 | 7300 | > 100000
